# Experimental data reported in US4612285A (priority 1982, dated 1986).
# “Also recorded” adds a separate entry of the source.
# Experiments:
# Solubility = format: physicochemical
# Gram negative bacteria = experiment: Antimicrobial action, Gram negative bacteria (summary); format: cell-based; settings: summary in words
# Text: (§1) (1) Antimicrobial properties:
# Pyricularia oryzae = format: cell-based
# Sarcoma-180 = experiment: Effect on Sarcoma-180 in mice; format: in vivo, mice (ICR, male, 6 weeks age)
# Text: Sarcome-180 (1×10^5 cells) is inoculated intra peritoneally in mice (ICR, male, 6 weeks age), administered the drug and the number of survival dates is observed.
# Gram positive bacteria = experiment: Antibacterial action, Gram positive bacteria (summary); format: cell-based; settings: summary in words
# Text: as §1
# [1] = tested on: Klebsiella pneumonia PCI 602; experiment: Antimicrobial properties (MIC); format: cell-based
# Text: as §1
# Escherichia coli NIHJ = experiment: Antimicrobial properties (MIC); format: cell-based
# Text: as §1
# Trichophyton ferrugineum = experiment: Antimicrobial properties (MIC); format: cell-based
# Text: as §1
# Salmonella typhimurium = experiment: Antimicrobial properties (MIC); format: cell-based
# Text: as §1
# [2] = tested on: Staphylococcus aureus FDA 209P; experiment: Antimicrobial properties (MIC); format: cell-based
# Text: as §1
# Sarcina lutea PCI 1001 = experiment: Antimicrobial properties (MIC); format: cell-based
# Text: as §1
# Shigella sonnai = experiment: Antimicrobial properties (MIC); format: cell-based
# Text: as §1
# Saccharomyces sake = experiment: Antimicrobial properties (MIC); format: cell-based
# Text: as §1
# [3] = tested on: Pseudomonas aeruginosa P-3; experiment: Antimicrobial properties (MIC); format: cell-based
# Text: as §1
# Aspergillus nigar = experiment: Antimicrobial properties (MIC); format: cell-based
# Text: as §1
# [4] = tested on: Bacillus subtilis PCI 219; experiment: Antimicrobial properties (MIC); format: cell-based
# Text: as §1
# Candida albicans = experiment: Antimicrobial properties (MIC); format: cell-based
# Text: as §1
# [5] = tested on: Ehrlich ascites carcinoma; experiment: Effect on Ehrlich ascites carcinoma in mice; format: in vivo, mice (ddY, male, 6 weeks age)
# Experimental: Ehrlich ascites carcinoma, 2×10^6 cells, is inoculated into mice (ddY, male, 6 weeks age) intra peritoneally, administered awamycin as shown in the table, number of survival dates is observed.
# Administered date is designates as 0th day at tumor inoculation date. Number of survival dates is shown as mean value in 4-5 mice in one group. Increased life span is calculated according to the following equation. [formula]
# Stability in heating = format: physicochemical; settings: vacuum concentration preferably controlled below 60° C.
# yeast and fungi = experiment: Antimicrobial action, yeast and fungi (summary); format: cell-based; settings: summary in words
# Text: as §1
smiles,measurement,setting,value
COC(=O)C1C(O)C(C)C(O)C(C)/C=C(/C)C(=O)c2c(OC)c(C)c(O)c3c2C(=O)C(SC)=C(NC(=O)/C(C)=C\C=C\C(C)C(O)C(C)C1O)C3=O (stereo not shown) [awamycin],Solubility,"Solubility; alcohols (methanol, ethanol), chlorinated methanes, ketones, esters, benzene, toluene, dimethylformamide, dimethyl sulfoxide",soluble
same,Solubility,Solubility; diethyl ether,slightly soluble
same,Solubility,Solubility; hexane and petroleum ether,insoluble
same,Solubility,Solubility; water,slightly soluble
same,action against Gram negative bacteria,Gram negative bacteria,no action
same,MIC,Pyricularia oryzae,> 100 µg/mL
same,Increased life span,"Sarcoma-180; 0.75 mg/kg/day, administering day 1-9",64%
same,Number of survival dates (mean value),"Sarcoma-180; 0.75 mg/kg/day, administering day 1-9, control 14",23
same,Increased life span,"Sarcoma-180; 1.5 mg/kg/day, administering day 1-9",200%
same,Number of survival dates (mean value),"Sarcoma-180; 1.5 mg/kg/day, administering day 1-9, control 14",42
same,Increased life span,"Sarcoma-180; 3.1 mg/kg/day, administering day 1-9",> 329%
same,Number of survival dates (mean value),"Sarcoma-180; 3.1 mg/kg/day, administering day 1-9, control 14",> 60
same,Increased life span,"Sarcoma-180; 6.3 mg/kg/day, administering day 1-9",186%
same,Number of survival dates (mean value),"Sarcoma-180; 6.3 mg/kg/day, administering day 1-9, control 14",40
same,Increased life span,"Sarcoma-180; 25 mg/kg/day, administering day 0, 1",100%
same,Number of survival dates (mean value),"Sarcoma-180; 25 mg/kg/day, administering day 0, 1,, control 12",24
same,antitumor activity / growth inhibitory activity,"Sarcoma-180; Sarcoma-180, in words",has antitumor activity; also recorded: exhibits growth inhibitory activity
same,antibacterial action against some Gram positive bacteria,Gram positive bacteria,shows antibacterial action against some of Gram positive bacteria; also recorded: active against Gram positive bacteria
same,MIC,[1],> 100 µg/mL
same,MIC,Escherichia coli NIHJ,> 100 µg/mL
same,MIC,Trichophyton ferrugineum,> 100 µg/mL
same,MIC,Salmonella typhimurium,> 100 µg/mL
same,MIC,[2],0.8 µg/mL
same,MIC,Sarcina lutea PCI 1001,0.05 µg/mL
same,MIC,Shigella sonnai,> 100 µg/mL
same,MIC,Saccharomyces sake,> 100 µg/mL
same,MIC,[3],> 100 µg/mL
same,MIC,Aspergillus nigar,> 100 µg/mL
same,MIC,[4],0.1 µg/mL
same,MIC,Candida albicans,> 100 µg/mL
same,Increased life span,"[5]; 6.3 mg/kg/day, administering date 1-9",73%
same,Number of survival date (median),"[5]; 6.3 mg/kg/day, administering date 1-9, control 22",38
same,Increased life span,"[5]; 25 mg/kg/day, administering date 0, 1",100%
same,Number of survival date (median),"[5]; 25 mg/kg/day, administering date 0, 1,, control 20",40
same,antitumor activity / growth inhibitory activity,"[5]; Ehrlich ascites carcinoma, in words",has antitumor activity; also recorded: exhibits growth inhibitory activity
same,Stability in heating,Stability in heating,stable in heating
same,action against yeast and fungi,yeast and fungi,no action
